The source made the active and inactive calls. The calls are words filed in the database; no cut-off is given here.
Assays:
[1] = biological target: T1, Signal transducer and activator of transcription 5A (Homo sapiens) (UniProt P42229); assay: (§1) Inhibition of 5-carboxyfluorescein-GpYLVLDKW-OH binding to C-terminal 6x-His-tagged and an N-terminal maltose-binding protein-tagged STAT5A SH2 domain (137 to 507 residues) (unknown origin) expressed in Escherichia coli Rosetta BL21 DE3 at 50 uM pre-incubated for 1 hr before fluorescent-labelled peptide addition by fluorescence polarization assay
T1 sequence (whole entry): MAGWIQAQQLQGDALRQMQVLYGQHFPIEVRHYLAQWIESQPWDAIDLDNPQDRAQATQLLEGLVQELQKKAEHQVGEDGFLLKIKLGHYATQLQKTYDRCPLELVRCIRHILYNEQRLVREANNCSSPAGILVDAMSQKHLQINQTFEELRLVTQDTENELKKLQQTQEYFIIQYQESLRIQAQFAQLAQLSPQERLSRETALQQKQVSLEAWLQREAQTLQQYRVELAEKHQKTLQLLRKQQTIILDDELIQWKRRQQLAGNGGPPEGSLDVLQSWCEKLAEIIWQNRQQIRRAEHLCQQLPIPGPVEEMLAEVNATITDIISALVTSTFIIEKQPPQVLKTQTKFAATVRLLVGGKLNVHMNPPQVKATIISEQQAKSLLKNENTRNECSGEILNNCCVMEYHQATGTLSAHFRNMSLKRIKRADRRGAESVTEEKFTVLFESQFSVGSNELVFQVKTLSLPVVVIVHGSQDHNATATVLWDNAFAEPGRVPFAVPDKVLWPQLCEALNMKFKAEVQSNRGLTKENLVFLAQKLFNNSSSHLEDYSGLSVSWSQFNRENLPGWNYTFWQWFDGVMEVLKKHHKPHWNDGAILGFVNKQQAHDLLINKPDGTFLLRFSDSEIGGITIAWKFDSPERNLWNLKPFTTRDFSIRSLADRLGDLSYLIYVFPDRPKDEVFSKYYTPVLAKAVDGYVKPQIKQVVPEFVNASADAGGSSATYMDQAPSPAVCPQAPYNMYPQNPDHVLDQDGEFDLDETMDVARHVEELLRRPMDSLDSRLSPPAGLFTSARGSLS

[2] = biological target: T2, Signal transducer and activator of transcription 5A (Homo sapiens, UniProt P42229); assay: as §1, with “DE3” for “DE3 at 50 uM”
T2 sequence (P42229 whole entry): T1 sequence (whole entry)

[3] = biological target: T3, Signal transducer and activator of transcription 5B (Homo sapiens, UniProt P51692); assay: Inhibition of 5-carboxyfluorescein-GpYLVLDKW-OH binding to STAT5B SH2 domain (unknown origin) pre-incubated for 1 hr before fluorescent-labelled peptide addition by fluorescence polarization assay
T3 sequence (P51692 whole entry): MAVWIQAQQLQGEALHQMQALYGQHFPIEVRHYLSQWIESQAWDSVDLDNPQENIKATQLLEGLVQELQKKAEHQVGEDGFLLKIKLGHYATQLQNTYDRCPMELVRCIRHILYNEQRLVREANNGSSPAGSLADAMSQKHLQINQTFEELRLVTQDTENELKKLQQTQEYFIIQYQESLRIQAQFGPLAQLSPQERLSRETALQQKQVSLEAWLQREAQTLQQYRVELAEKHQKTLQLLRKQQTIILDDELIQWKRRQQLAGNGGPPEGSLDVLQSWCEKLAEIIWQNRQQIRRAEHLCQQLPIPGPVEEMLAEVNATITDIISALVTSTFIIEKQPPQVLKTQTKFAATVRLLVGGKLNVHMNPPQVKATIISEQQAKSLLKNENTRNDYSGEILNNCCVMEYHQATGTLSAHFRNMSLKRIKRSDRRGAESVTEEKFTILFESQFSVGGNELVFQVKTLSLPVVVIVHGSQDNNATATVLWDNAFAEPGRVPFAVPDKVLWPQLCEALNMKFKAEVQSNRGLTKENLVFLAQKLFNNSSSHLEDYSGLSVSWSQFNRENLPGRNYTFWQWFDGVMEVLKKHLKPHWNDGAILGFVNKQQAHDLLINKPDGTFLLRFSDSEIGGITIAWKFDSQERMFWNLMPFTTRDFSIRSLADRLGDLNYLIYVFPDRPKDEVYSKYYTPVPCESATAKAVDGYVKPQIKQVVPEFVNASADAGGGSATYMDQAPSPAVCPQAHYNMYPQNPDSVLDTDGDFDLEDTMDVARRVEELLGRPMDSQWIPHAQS

[4] = biological target: T4, Signal transducer and activator of transcription 1-alpha/beta (Homo sapiens, UniProt P42224); assay: Inhibition of 5-carboxyfluorescein-GpYDKPHVL-OH binding to STAT1 (unknown origin) pre-incubated for 1 hr before fluorescent-labelled peptide addition by fluorescence polarization assay
T4 sequence (P42224 whole entry): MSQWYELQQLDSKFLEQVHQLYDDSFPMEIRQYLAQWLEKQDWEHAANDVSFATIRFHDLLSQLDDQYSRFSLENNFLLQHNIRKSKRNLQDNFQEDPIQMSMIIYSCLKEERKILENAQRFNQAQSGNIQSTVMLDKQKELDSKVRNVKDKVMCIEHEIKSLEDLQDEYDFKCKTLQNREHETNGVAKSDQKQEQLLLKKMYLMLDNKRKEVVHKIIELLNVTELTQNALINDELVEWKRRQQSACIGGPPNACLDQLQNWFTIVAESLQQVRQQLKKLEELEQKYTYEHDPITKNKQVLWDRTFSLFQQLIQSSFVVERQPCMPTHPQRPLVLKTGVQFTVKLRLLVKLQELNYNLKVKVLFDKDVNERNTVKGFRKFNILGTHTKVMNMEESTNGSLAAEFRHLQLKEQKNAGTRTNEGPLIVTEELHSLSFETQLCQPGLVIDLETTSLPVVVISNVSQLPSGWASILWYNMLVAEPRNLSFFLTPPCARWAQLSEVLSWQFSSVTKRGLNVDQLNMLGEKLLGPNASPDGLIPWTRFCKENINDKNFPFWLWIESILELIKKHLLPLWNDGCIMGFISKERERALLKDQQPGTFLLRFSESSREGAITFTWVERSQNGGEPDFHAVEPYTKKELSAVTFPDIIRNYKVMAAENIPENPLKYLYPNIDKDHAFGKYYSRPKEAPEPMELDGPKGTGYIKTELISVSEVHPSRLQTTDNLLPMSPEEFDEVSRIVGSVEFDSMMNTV

[5] = biological target: Signal transducer and activator of transcription 3 (Mus musculus, UniProt P42227); assay: Inhibition of 5-carboxyfluorescein-GpYLPQTV-NH2 binding to mouse STAT3 (127 to 722 residues) expressed in Escherichia coli Rosetta BL21 DE3 pre-incubated for 1 hr before fluorescent-labelled peptide addition by fluorescence polarization assay
Signal transducer and activator of transcription 3, sequence (P42227 whole entry, the tested form may be a part): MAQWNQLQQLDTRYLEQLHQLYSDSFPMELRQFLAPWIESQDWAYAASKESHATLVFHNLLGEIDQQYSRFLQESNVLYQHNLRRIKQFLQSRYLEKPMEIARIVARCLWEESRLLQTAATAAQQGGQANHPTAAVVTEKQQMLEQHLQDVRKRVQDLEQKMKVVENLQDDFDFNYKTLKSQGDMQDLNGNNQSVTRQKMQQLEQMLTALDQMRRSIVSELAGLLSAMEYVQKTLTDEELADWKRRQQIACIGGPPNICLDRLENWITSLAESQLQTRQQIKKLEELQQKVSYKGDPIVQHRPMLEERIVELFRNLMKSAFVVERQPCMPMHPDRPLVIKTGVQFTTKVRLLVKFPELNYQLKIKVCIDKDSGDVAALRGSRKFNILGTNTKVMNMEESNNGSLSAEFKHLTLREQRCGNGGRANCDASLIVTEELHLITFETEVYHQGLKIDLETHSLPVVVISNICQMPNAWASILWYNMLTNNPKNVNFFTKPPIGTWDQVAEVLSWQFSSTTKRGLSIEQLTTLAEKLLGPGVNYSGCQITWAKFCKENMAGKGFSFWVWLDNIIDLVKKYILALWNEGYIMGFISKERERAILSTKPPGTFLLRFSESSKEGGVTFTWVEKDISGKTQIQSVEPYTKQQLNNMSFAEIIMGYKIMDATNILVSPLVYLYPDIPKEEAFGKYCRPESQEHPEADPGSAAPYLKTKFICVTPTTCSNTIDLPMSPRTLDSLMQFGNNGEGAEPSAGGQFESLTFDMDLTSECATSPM

inhibition [1]	IC50 [2]	IC50 [3]	IC50 [4]	IC50 [5]	Compound
Active	8.8 µM	12.7 µM	33.2 µM	> 100 µM	O=C(Nc1cccc(C(=O)Nc2ccc(S(=O)(=O)O)c3cc(S(=O)(=O)O)cc(S(=O)(=O)O)c23)c1)Nc1cccc(C(=O)Nc2ccc(S(=O)(=O)O)c3cc(S(=O)(=O)O)cc(S(=O)(=O)O)c23)c1
Active	1.4 µM	2.5 µM	7.9 µM	> 100 µM	O=C(Nc1cc(C(=O)Nc2ccc(S(=O)(=O)O)cc2S(=O)(=O)O)cc(C(=O)Nc2ccc(S(=O)(=O)O)cc2S(=O)(=O)O)c1)Nc1cc(C(=O)Nc2ccc(S(=O)(=O)O)cc2S(=O)(=O)O)cc(C(=O)Nc2ccc(S(=O)(=O)O)cc2S(=O)(=O)O)c1
Active	9.4 µM	10.4 µM	9.1 µM	> 100 µM	Cc1ccc(C(=O)Nc2ccc(S(=O)(=O)O)c3cc(S(=O)(=O)O)cc(S(=O)(=O)O)c23)cc1NC(=O)c1cccc(NC(=O)Nc2cccc(C(=O)Nc3cc(C(=O)Nc4ccc(S(=O)(=O)O)c5cc(S(=O)(=O)O)cc(S(=O)(=O)O)c45)ccc3C)c2)c1 [SURAMIN HEXASODIUM]

From ChEMBL document CHEMBL4052677, “A small-molecule screen identifies the antitrypanosomal agent suramin and analogues NF023 and NF449 as inhibitors of STAT5a/b” (Bioorg Med Chem Lett, 2017)
